The source of these data is patent US20100056623A1, “FUMAGILLOL DERIVATIVES OR METHOD FOR PREPARATION OF FUMAGILLOL DERIVATIVES, AND PHARMACEUTICAL COMPOSITIONS COMPRISING THE SAME” (CHONG KUN DANG PHARMACEUTICAL CORP., priority 2005, published 2010).

Series [1] relates to CPAE (calf pulmonary artery endothelial cell). Briefly: Inhibiting activity on cell proliferation, SRB analysis (CPAE). Format: cell-based. The settings on record: for IC50: Bos taurus, Endothelial cell, 72 h, CPAE cells, 3 days with drug, SRB, read-out: IC50 (nM) CAPE; for effect compared to CKD-731 against CPAE: relative to CKD-731; for effect compared to CKD-731 against SI: safety/selectivity index relative to CKD-731. The procedure, abridged: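 Cells were exposed to 2- or 10-fold PBS serial dilutions (triplicate) for 3 days at 37 °C, 5% CO2. HUVEC were grown in M199 (20% FBS, heparin, bFGF) and CPAE in MEM (20% FBS, ECGS). Cells were then TCA-fixed and SRB-stained, absorbance was read at 570 nm, and viability was taken relative to untreated wells.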

The conditions of series [2]: 1 month.
Description: (§1) Each compound of the present invention was kept in an air-tight vessel for 1 month at 40±2° C. and 75±5% of relative humidity. Thereafter the HPLC purity test was executed.
(§2) 25 mL of the solution was precisely taken, and poured into 100 mL volumetric flask. Acetonitrile/20 mM ammonium acetate aqueous solution (50:50) was added thereto to be the total volume of 100 ml. The solution was filtrated, and the filtrate was used as a test liquid.
(§3) (2) Operational Condition of Instrument. • Column: Kromasil®C18 (UG 100 Å, 5 μm, 4.6 mm Φ×250 mm) • Column temperature: 30° C. • Mobil phase: 20 mM ammonium acetate (pH 4.2) buffer:acetonitrile (55:45) • Injection volume: 20 μL • Flow rate: 1.2 mL/min • Detector: UV light-absorption Spectrophotometer (detection wavelength: 306 nm)
Series [3] relates to L5178Y lymphoma. As to the kind of experiment: Inhibiting activity on cell proliferation, MTT analysis (L5178Y). Format: cell-based, murine. To be noted: Mus musculus, 72 h, L5178Y lymphoma cells, 3 days with drug. The procedure, abridged:
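Murine thymic L5178Y lymphoma cells in RPMI 1640 with 10% FBS at 37 °C, 5% CO2, exposed to drug serially diluted 2- or 10-fold in PBS, in triplicate, for 3 days. MTT was added for a further 4 h at 37 °C, formazan dissolved in DMSO, absorbance read at 570 nm to give IC50.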

The nature of series [4]: Solubility test. Format: physicochemical. The settings on record: ordinary temperature. The procedure: To a constant amount (400 mg) of each compounds of present invention, a constant amount of demineralized water, methanol and ethanol were added separately, and the solution was stirred at ordinary temperature.
In series [5] the test system is SD rats. As to the kind of experiment: Acute oral toxicity test on rats. Format: in vivo. To be noted: single oral dose 1 g/kg/15 ml in 0.5% methylcellulose. The procedure: The acute toxicity test was carried out using 6-weeks-old SD rats. Each Example of O-(4-(2-hydroxyethoxy)cinnamoyl)fumagillol (a compound of the Example 1), O-(3,5-dimethoxy-4-(2-hydroxyethoxy)cinnamoyl)fumagillol (a compound of the Example 2) and O-(4-(2-hydroxyethoxy)-3-methoxycinnamoyl)fumagillol (a compound of the Example 3) was suspended in 0.5% methylcellulose, and then orally administrated once to 5 of each male and each female rats per group by dosage of 1 g/kg/15 ml. After administrating the test substances, the death of the rats, clinic symptoms and the change of weight were observed. And also hematologic and blood biochemical tests were executed, the abnormality of abdominal and thoracic organs was observed by autopsy with the naked eye.

A short description of series [6]: Chemical stability test (HPLC purity). The settings on record: for change of purity (in words) / 1 month Other peaks (%) / 1 month Parent peak (%): 1 month at 40±2° C.; for change of purity (in words) / 1 month Other peaks (%) / 1 month Parent peak (%) / change of purity (%): 75±5% relative humidity; for 1 month Other peaks (%) / 1 month Parent peak (%) / Initial Other peaks (%) / Initial Parent peak (%): HPLC; for 1 month Other peaks (%) / 1 month Parent peak (%): air-tight vessel; for change of purity (%): initial vs 1 month at 40±2° C.
Description: as §1, §2, §3

A word on the IC50: it is the concentration that inhibits the measured activity by half.

In the case of `COc1cc(/C=C/C(=O)O[C@@H]2CC[C@]3(CO3)[C@@H]([C@@]3(C)O[C@@H]3CC=C(C)C)[C@@H]2OC)ccc1OCCO` [Example 3, O-(4-(2-hydroxyethoxy)-3-methoxycinnamoyl)fumagillol], in series [1], the IC50 worked out at 0.0045 nM, the “effect compared to CKD-731 against CPAE” value is recorded as “equivalent or not smaller than twice effect of CKD-731” and the “effect compared to CKD-731 against SI” value is recorded as “equivalent or more effect of CKD-731”. The “chemical stability compared to known compounds” value in series [2] is “more excellent chemical stability than TNP-470, CKD-732 and CKD-731”. The IC50 in series [3] stood at 56400 nM. Moreover, in series [4], the “The amount of solvent to dissolve 1 g of the compounds (ml), demineralized water” value came to 142 mL; the “The amount of solvent to dissolve 1 g of the compounds (ml), ethanol” value came to 61 mL; the “The amount of solvent to dissolve 1 g of the compounds (ml), methanol” value was found to be 45 mL. In addition, in series [5], the “clinic symptoms, death and change by toxicity (autopsy)” value was “no notable clinic symptoms, death and change by toxicity”. In addition, in series [6], the “change of purity (in words)” value is recorded as “hardly showed a change of purity”, the “1 month Other peaks (%)” value was determined as 1.6%, the “1 month Parent peak (%)” value is recorded as 98.4% and the “Initial Other peaks (%)” value was found to be 1.5%. In series [6], the “Initial Parent peak (%)” value was found to be 98.5% and the “change of purity (%)” value was determined as 0.1%.

For `COc1cc(/C=C/C(=O)O[C@@H]2CC[C@]3(CO3)[C@@H]([C@@]3(C)O[C@@H]3CC=C(C)C)[C@@H]2OC)cc(OC)c1OCCO` [Example 2, O-(3,5-dimethoxy-4-(2-hydroxyethoxy)cinnamoyl)fumagillol], in series [1], the IC50 is 0.0025 nM, the “effect compared to CKD-731 against CPAE” value is reported as “equivalent or not smaller than twice effect of CKD-731” and the “effect compared to CKD-731 against SI” value was “equivalent or more effect of CKD-731”. In series [1] (IC50 L5178Y / IC50 CPAE), the “Selectivity Index (L5178Y/CAPE)” value is reported as 1.00 × 10^7. Moreover, in series [2], the “chemical stability compared to known compounds” value was “more excellent chemical stability than TNP-470, CKD-732 and CKD-731”. In series [3], this compound gave an IC50 of 25000 nM. Besides, in series [4], the “The amount of solvent to dissolve 1 g of the compounds (ml), demineralized water” value worked out at 146 mL; the “The amount of solvent to dissolve 1 g of the compounds (ml), ethanol” value stood at 59 mL; the “The amount of solvent to dissolve 1 g of the compounds (ml), methanol” value came out at 37 mL. Besides, in series [5], the “clinic symptoms, death and change by toxicity (autopsy)” value was “no notable clinic symptoms, death and change by toxicity”. In series [6], the “change of purity (in words)” value is reported as “hardly showed a change of purity”, the “1 month Other peaks (%)” value worked out at 0.9%, the “1 month Parent peak (%)” value came out at 99.1% and the “Initial Other peaks (%)” value is 0.9%. Besides, in series [6], the “Initial Parent peak (%)” value worked out at 99.1% and the “change of purity (%)” value is recorded as 0%.
